Reference: ChEMBL document CHEMBL3621149, “Cytotoxic labdane-type diterpenes from Hedychium longipetalum inhibiting production of nitric oxide” (Bioorg Med Chem Lett, 2015)
≈ marks a conversion by molar mass, not a printed value. Peptide text beside a SMILES is read from it. * marks the point of attachment. Cbz = O=C(OCc1ccccc1)*

Columns and labels:
Format in all cases: functional, cell-based
[1] = Cytotoxicity against human SGC7901 cells after 48 hrs by SRB assay; details: SGC-7901, 48 h
RAW264.7 = assay: Inhibition of LPS and IFN-gamma-stimulated nitric oxide production in mouse RAW264.7 cells after 18 hrs by Griess method; details: RAW264.7, 18 h
HeLa = assay: Cytotoxicity against human HeLa cells after 48 hrs by SRB assay

| SMILES | IC50 [1] [µg/mL] | IC50 (RAW264.7) [µg/mL] | IC50 (HeLa) [µg/mL] |
| --- | --- | --- | --- |
| CC1(C)CCC[C@]2(C)[C@@H]3C(=CC(=O)[C@@H]12)CO[C@H]3C(=O)c1ccoc1 | > 25 | 7.5 (≈ 22.8 µM) | > 25 |
| CC(=O)O[C@H]1C(=O)[C@@]2(C)[C@H]([C@H](OC(=O)c3ccccc3)[C@]3(O)C[C@H](OC(=O)[C@H](O)[C@@H](NC(=O)c4ccccc4)c4ccccc4)C(C)=C1C3(C)C)[C@]1(OC(C)=O)CO[C@@H]1C[C@@H]2O [PACLITAXEL] | 0.2 (≈ 0.234 µM) |  | 0.1 (≈ 0.117 µM) |
| C=C1C[C@@H](O)[C@H]2C(C)(C)CCC[C@]2(C)[C@H]1C/C=C1/CC(OC)OC1=O (stereo partly specified) | 8.74 (≈ 25.1 µM) | 6.1 (≈ 17.5 µM) | 11.3 (≈ 32.5 µM) |
| C=C1[C@@H](O)[C@@H](O)[C@H]2C(C)(C)CCC[C@]2(C)[C@H]1/C=C/C1=CCOC1=O | > 25 | 5.58 (≈ 16.8 µM) | > 25 |
| C=C1[C@@H](O)C[C@H]2C(C)(C)CCC[C@]2(C)[C@H]1/C=C/C1=CC(=O)OC1O (stereo partly specified) [HEDYFORRESTIN C] | 7.29 (≈ 21.9 µM) | 2.77 (≈ 8.33 µM) | 9.21 (≈ 27.7 µM) |
| CC(C)C[C@@H](C=O)NC(=O)[C@H](CC(C)C)NC(=O)[C@H](CC(C)C)NC(=O)OCc1ccccc1 [MG-132] (Cbz-Leu-Leu-Leu-aldehyde) |  | 0.08 (≈ 0.168 µM) |  |
| C=C1C[C@@H](O)[C@H]2C(C)(C)CCC[C@]2(C)[C@H]1/C=C/c1ccoc1 [YUNNACORONARIN A] | 6.21 (≈ 20.7 µM) | 0.56 (≈ 1.86 µM) | 6.58 (≈ 21.9 µM) |
| C=C1[C@@H](O)C[C@H]2C(C)(C)CCC[C@]2(C)[C@H]1/C=C/C1=CCOC1=O | 14.5 (≈ 45.9 µM) | 6.52 (≈ 20.6 µM) | 14.8 (≈ 46.9 µM) |
